The MIC is the smallest concentration in the dilution series that meets the test's criterion for growth inhibition.

Structures are written as SMILES. Converted amounts (≈) assume the structure as drawn. The source made the active and inactive calls.

Data on 54 compounds can be found in ChEMBL document CHEMBL1250481, “Isoxazole analogs of curcuminoids with highly potent multidrug-resistant antimycobacterial activity” (2010).

The first experiment deals with Mycobacterium tuberculosis. Put plainly: Antimycobacterial activity against Mycobacterium tuberculosis H37Ra at 200 ug/ml after 24 hrs by microtiter alamar blue assay. In kind it is functional, organism-based. In general terms: The colour change of resazurin is a common sign of viable cells or microbes.
Take `CCCCCOc1ccc(/C=C/c2cc(/C=C/c3ccc(OCCCCC)c(OC)c3)on2)cc1OC`: the MIC result was “inactive”.

In the case of `COc1cc(CCC(O)CC(O)CCc2ccc(O)c(OC)c2)ccc1O` (stereo not drawn), the MIC entry is “inactive”.

Regarding `COc1ccc(/C=C/c2cc(/C=C/c3ccc(OC)cc3)on2)cc1`, the MIC result was “inactive”.

For the compound `C=CCOc1ccc(/C=C/C(=O)CC(=O)/C=C/c2ccc(OCC=C)c(OC)c2)cc1OC`, the MIC result is “inactive”.

In the next experiment the test system is Mycobacterium tuberculosis. The experiment is described as follows: Antimycobacterial activity against Pan-sensitive Mycobacterium tuberculosis H37Ra after 24 hrs by microtiter alamar blue assay. In kind it is functional.
Consider `CCCCCOc1ccc(/C=C/c2cc(/C=C/c3ccc(O)c(OC)c3)no2)cc1OC`, for which 6.25 µg/mL (≈ 14.4 µM) was the least that counted as inhibitory (MIC).

As to `COc1cc(/C=C/c2cc(/C=C/c3ccc(OC)c(OC)c3)on2)ccc1O`, the MIC worked out at 0.78 µg/mL (≈ 2.06 µM).

`COc1cc(/C=C/c2cc(/C=C/c3ccc(OC)c(OC)c3)no2)ccc1O`: the MIC stood at 0.09 µg/mL (≈ 0.237 µM).

Regarding `CCCCCOc1ccc(/C=C/c2cc(/C=C/c3ccc(O)c(OC)c3)on2)cc1OC`, 0.39 µg/mL (≈ 0.895 µM) was the least that counted as inhibitory (MIC).

For a further experiment, the system named is Mycobacterium tuberculosis. The experiment is described as follows: Antimycobacterial activity against Mycobacterium tuberculosis H37Ra after 24 hrs by microtiter alamar blue assay. In kind it is functional.
`COc1cc(/C=C/c2cc(/C=C/c3ccc(O)c(OC)c3)n(-c3ccccc3)n2)ccc1O` came in with an MIC of 25 µg/mL (≈ 56.8 µM).

`COc1cc(/C=C/C(=O)CC(=O)/C=C/c2ccc(O)cc2)ccc1OC(C)=O` showed a minimal inhibitory concentration (MIC) of 50 µg/mL (≈ 131 µM).

`COc1cc(CC/C=C/C(=O)CCc2ccc(O)c(OC)c2)ccc1O` had an MIC of 25 µg/mL (≈ 70.1 µM).

As for `COc1cc(/C=C/c2cc(/C=C/c3ccc(O)cc3)[nH]n2)ccc1O`, the MIC is 100 µg/mL (≈ 299 µM).

In turn, `CCCOc1ccc(/C=C/C(=O)CC(=O)/C=C/c2ccc(OCCC)c(OC)c2)cc1OC` registered an MIC of 200 µg/mL (≈ 442 µM).

Compound `CCCCCOc1ccc(/C=C/C(=O)CC(=O)/C=C/c2ccc(OCCCCC)c(OC)c2)cc1OC` gave an MIC of 100 µg/mL (≈ 197 µM).

In the case of `COc1cc(/C=C/C=C/C(=O)/C=C/c2ccc(O)c(OC)c2)ccc1O`, inhibition of growth (MIC) required 12.5 µg/mL (≈ 35.5 µM).

In the case of `Oc1ccc(/C=C/c2cc(/C=C/c3ccc(O)c(O)c3)on2)cc1O`, the MIC is 200 µg/mL (≈ 593 µM).

In turn, `O=C(/C=C/c1ccc(O)c(O)c1)CC(=O)/C=C/c1ccc(O)c(O)c1` [DIDEMETHYLCURCUMIN] displayed an MIC of 100 µg/mL (≈ 294 µM).

With `CCCCCOc1ccc(/C=C/c2cc(/C=C/c3ccc(O)c(OC)c3)no2)cc1OC`, the MIC came to 6.25 µg/mL (≈ 14.4 µM).

In turn, `COc1cc(CCc2cc(CCc3ccc(O)c(OC)c3)on2)ccc1O` returned an MIC of 100 µg/mL (≈ 271 µM).

As for `CC(=O)Oc1ccc(/C=C/C(=O)CC(=O)/C=C/c2ccc(OC(C)=O)cc2)cc1`, the MIC came out at 25 µg/mL (≈ 63.7 µM).

Compound `COc1cc(/C=C/C(=O)CC(=O)/C=C/c2ccc(OCCO)c(OC)c2)ccc1O` came in with an MIC of 200 µg/mL (≈ 485 µM).

Take `COc1cc(/C=C/C(=O)CC(=O)/C=C/c2ccc(O)c(O)c2)ccc1O`: the MIC is 200 µg/mL (≈ 564 µM).

With `Oc1ccc(/C=C/c2cc(/C=C/c3ccc(O)cc3)on2)cc1`, the MIC was 12.5 µg/mL (≈ 40.9 µM).

The compound `COc1cc(/C=C/C(=O)CC(=O)/C=C/c2ccc(OC(C)=O)cc2)ccc1OC(C)=O` had a minimal inhibitory concentration (MIC) of 100 µg/mL (≈ 237 µM).

`COc1cc(/C=C/C(=O)CC(=O)/C=C/c2ccc(OCCO)c(OC)c2)ccc1OCCO` returned an MIC of 200 µg/mL (≈ 438 µM).

In the case of `COc1cc(/C=C/C(=O)CC(=O)/C=C/c2ccc(OC(C)=O)c(OC)c2)ccc1OC(C)=O`, it took 200 µg/mL (≈ 442 µM) to inhibit growth (MIC).

`COc1cc(/C=C/C(=O)CC(=O)/C=C/c2ccc(OC(C)=O)c(OC)c2)ccc1O` displayed an MIC of 100 µg/mL (≈ 244 µM).

`COc1cc(/C=C/c2cc(/C=C/c3ccc(OC(C)=O)c(OC)c3)on2)ccc1O` came in with an MIC of 1.56 µg/mL (≈ 3.83 µM).

In turn, `COc1ccc(/C=C/c2cc(/C=C/c3ccc(OC)c(OC)c3)on2)cc1OC` showed an MIC of 0.39 µg/mL (≈ 0.991 µM).

Turning to `COc1cc(/C=C/C(=O)CC(=O)CCc2ccc(O)c(OC)c2)ccc1O`, the MIC worked out at 200 µg/mL (≈ 540 µM).

As to `NC[C@H]1O[C@H](O[C@H]2[C@H](O)[C@@H](O[C@H]3O[C@H](CO)[C@@H](O)[C@H](N)[C@H]3O)[C@H](N)C[C@@H]2N)[C@H](O)[C@@H](O)[C@@H]1O` [KANAMYCIN], the MIC was found to be 2.5 µg/mL (≈ 5.16 µM).

For `NNC(=O)c1ccncc1` [ISONIAZID], the MIC came to 0.06 µg/mL (≈ 0.438 µM).

The compound `COc1cc(/C=C/c2cc(/C=C/c3ccc(OC)c(OC)c3)on2)ccc1O` registered a minimal inhibitory concentration (MIC) of 0.78 µg/mL (≈ 2.06 µM).

Regarding `COc1cc(/C=C/C(=O)CC(=O)/C=C/c2ccc(OC)c(OC)c2)ccc1O`, the MIC worked out at 50 µg/mL (≈ 131 µM).

The compound `COc1cc(/C=C/c2cc(/C=C/c3ccc(OC(C)=O)c(OC)c3)no2)ccc1O` returned an MIC of 1.56 µg/mL (≈ 3.83 µM).

As to `COc1cc(/C=C/C(=O)CC(=O)/C=C/c2ccc(OC(C)=O)cc2)ccc1O`, the MIC turned out to be 50 µg/mL (≈ 131 µM).

As to `C=CCOc1ccc(/C=C/C(=O)CC(=O)/C=C/c2ccc(O)c(OC)c2)cc1OC`, 100 µg/mL (≈ 245 µM) was the least that counted as inhibitory (MIC).

`COc1cc(/C=C/C(O)=C/C(=O)/C=C/c2ccc(O)cc2)ccc1O` [DEMETHOXYCURCUMIN]: the MIC is 50 µg/mL (≈ 148 µM).

`CC(=O)Oc1ccc(/C=C/C(=O)CC(=O)/C=C/c2ccc(O)cc2)cc1` displayed an MIC of 25 µg/mL (≈ 71.4 µM).

With `COc1cc(CCCCC(=O)CCc2ccc(O)c(OC)c2)ccc1O`, the MIC was determined as 100 µg/mL (≈ 279 µM).

The compound `CO[C@H]1/C=C/O[C@@]2(C)Oc3c(C)c(O)c4c(O)c(c(/C=N/N5CCN(C)CC5)c(O)c4c3C2=O)NC(=O)/C(C)=C\C=C\[C@H](C)[C@H](O)[C@@H](C)[C@@H](O)[C@@H](C)[C@H](OC(C)=O)[C@@H]1C` [RIFAMPIN] had an MIC of 0.004 µg/mL (≈ 0.00486 µM).

`COc1cc(/C=C/c2cc(CCc3ccc(O)c(OC)c3)on2)ccc1O` displayed an MIC of 6.25 µg/mL (≈ 17 µM).

The compound `O=C(/C=C/c1ccc(O)cc1)CC(=O)/C=C/c1ccc(O)cc1` [BISDEMETHOXYCURCUMIN] had an MIC of 25 µg/mL (≈ 81.1 µM).

The compound `COc1cc(/C=C/C(=O)/C=C/CCc2ccc(O)c(OC)c2)ccc1O` yielded an MIC of 12.5 µg/mL (≈ 35.3 µM).

With `CCCOc1ccc(/C=C/C(=O)CC(=O)/C=C/c2ccc(O)c(OC)c2)cc1OC`, inhibition of growth (MIC) required 25 µg/mL (≈ 60.9 µM).

In the case of `COc1cc(/C=C/c2cc(/C=C/c3ccc(O)c(OC)c3)[nH]n2)ccc1O` [CURCUMIN PYRAZOLE], the MIC was determined as 200 µg/mL (≈ 549 µM).

In the case of `O=C(/C=C/c1ccc(O)cc1)CC(=O)/C=C/c1ccc(O)c(O)c1`, the MIC worked out at 200 µg/mL (≈ 617 µM).

`COc1ccc(/C=C/C(=O)CC(=O)/C=C/c2ccc(OC)c(OC)c2)cc1OC` [TETRAMETHOXYCURCUMIN] came in with an MIC of 100 µg/mL (≈ 252 µM).

Consider `COc1cc(/C=C/c2cc(/C=C/c3ccc(OC(C)=O)c(OC)c3)on2)ccc1OC(C)=O`, for which 1.56 µg/mL (≈ 3.47 µM) was the least that counted as inhibitory (MIC).

The compound `Oc1ccc(/C=C/c2cc(/C=C/c3ccc(O)cc3)[nH]n2)cc1` returned an MIC of 25 µg/mL (≈ 82.1 µM).

Take `COc1cc(/C=C/c2cc(/C=C/c3ccc(OC)c(OC)c3)no2)ccc1O`: the MIC is 0.09 µg/mL (≈ 0.237 µM).

`COc1cc(/C=C/c2cc(/C=C/c3ccc(O)c(OC)c3)on2)ccc1O` showed an MIC of 1.56 µg/mL (≈ 4.27 µM).

In the case of `COc1cc(/C=C/C=C/C(=O)CCc2ccc(O)c(OC)c2)ccc1O`, inhibition of growth (MIC) required 25 µg/mL (≈ 70.5 µM).

For `COc1cc(CCC(=O)CC(=O)CCc2ccc(O)c(OC)c2)ccc1O` [TETRAHYDROCURCUMIN], the lowest concentration to inhibit growth (MIC) was 50 µg/mL (≈ 134 µM).

As for `CCCCCOc1ccc(/C=C/C(=O)CC(=O)/C=C/c2ccc(O)c(OC)c2)cc1OC`, the MIC was found to be 12.5 µg/mL (≈ 28.5 µM).

For `CCCCCOc1ccc(/C=C/c2cc(/C=C/c3ccc(O)c(OC)c3)on2)cc1OC`, inhibition of growth (MIC) required 0.39 µg/mL (≈ 0.895 µM).

For the compound `COc1cc(CCC(=O)CC(O)CCc2ccc(O)c(OC)c2)ccc1O` (stereo not drawn) [HEXAHYDROCURCUMIN], the MIC stood at 100 µg/mL (≈ 267 µM).

In turn, `COc1cc(/C=C/C(=O)CC(=O)/C=C/c2ccc(O)c(OC)c2)ccc1O` [CURCUMIN] showed an MIC of 100 µg/mL (≈ 271 µM).
